From patent US4889800A (priority 1987, dated 1989) come the findings set out here.

Values joined by “and” are separate entries in the source; they are usually repeats but may differ in a detail not shown here. Equal values may be shown once. “Also recorded” adds a separate entry of the source. Where no end group is shown, it is not given here.

The experiment has as its system guinea pigs immunized with mycobacterial cell sonicates. Particulars: guinea pig, in vivo.

Regarding “CAKVNIKPLQDKIC (cysteine pairing not given here) [Polypeptide (diCys Terminated), residues 1-12 of the BCG-a protein with Cys at both termini]”, the “DCH Reaction To 250 Micrograms Of Polypeptide (positive DCH reactions/total trials)” value was 7/7 and 4/4 and 0/4 and 0/3 and 2/4 and 5/5 and 0/5; the “DCH reaction (in words)” value is “most pronounced DCH reactions; also recorded: developed a DCH reaction”; the “delayed cutaneous hypersensitivity reaction (in words)” value is listed as “more pronounced delayed cutaneous hypersensitivity reaction”.
